Measurements: US8802661B2, “C-28 amides of modified C-3 betulinic acid derivatives as HIV maturation inhibitors” (priority 2010, dated 2014)
pEC50: −log10 of the molar value.

tested on: recombinant NL4-3 virus (Renilla luciferase in nef, Gag P373S); test: HIV Cell Culture Assay (luciferase reporter virus in MT-2 cells); assay type: cell-based; details: NL43, read-out: EC50 Group
Summary of the method: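 Cells grown in serum-supplemented RPMI were exposed to graded inhibitor concentrations during a 4-5 day infection. Antiviral effect was then derived from luminescence after adding a combined lysis and dual-luciferase substrate mixture to each well.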

Row | SMILES | pEC50
1 | C=C(C)[C@@H]1CC[C@]2(C(=O)NCCNCC(=O)O)CC[C@]3(C)[C@H](CC[C@@H]4[C@@]5(C)CC=C(c6ccc(C(=O)O)cc6)C(C)(C)[C@@H]5CC[C@]43C)[C@@H]12 [Example 81, 4-((1R,3aS,5aR,5bR,7aR,11aS,11bR,13aR,13bR)-3a-(2-(carboxymethylamino)ethylcarbamoyl)-5a,5b,8,8,11a-pentamethyl-1-(prop-1-en-2-yl)-2,3,3a,4,5,5a,5b,6,7,7a,8,11,11a,11b,12,13,13a,13b-octadecahydro-1H-cyclopenta[a]chrysen-9-yl)benzoic acid] | > 7.00
2 | C=C(C)[C@@H]1CC[C@]2(C(=O)NCCC(C)C)CC[C@]3(C)[C@H](CC[C@@H]4[C@@]5(C)CC=C(c6ccc(C(=O)O)cc6)C(C)(C)[C@@H]5CC[C@]43C)[C@@H]12 [Example 129, 4-((1R,3aS,5aR,5bR,7aR,11aS,11bR,13aR,13bR)-3a-(isopentylcarbamoyl)-5a,5b,8,8,11a-pentamethyl-1-(prop-1-en-2-yl)-2,3,3a,4,5,5a,5b,6,7,7a,8,11,11a,11b,12,13,13a,13b-octadecahydro-1H-cyclopenta[a]chrysen-9-yl)benzoic acid] | > 7.00
3 | C=C(C)[C@@H]1CC[C@]2(C(=O)N[C@@H](CC(C)C)C(=O)O)CC[C@]3(C)[C@H](CC[C@@H]4[C@@]5(C)CC=C(c6ccc(C(=O)O)cc6)C(C)(C)[C@@H]5CC[C@]43C)[C@@H]12 [Example 59, 4-((1R,3aS,5aR,5bR,7aR,11aS,11bR,13aR,13bR)-3a-((S)-1-carboxy-3-methylbutylcarbamoyl)-5a,5b,8,8,11a-pentamethyl-1-(prop-1-en-2-yl)-2,3,3a,4,5,5a,5b,6,7,7a,8,11,11a,11b,12,13,13a,13b-octadecahydro-1H-cyclopenta[a]chrysen-9-yl)benzoic acid] | > 7.00
4 | C[C@H]1[C@H](C)CC[C@]2(C(=O)NCCCN3CCS(=O)(=O)CC3)CC[C@]3(C)C(=CC[C@@H]4[C@@]5(C)CC=C(c6ccc(C(=O)O)cc6)C(C)(C)[C@@H]5CC[C@]43C)[C@H]12 [Example A2, 4-((4aR,6aR,6bS,8aS,11R,12S,12aS,14aR,14bS)-8a-((3-(1,1-dioxido-4-thiomorpholinyl)propyl)carbamoyl)-4,4,6a,6b,11,12,14b-heptamethyl-1,4,4a,5,6,6a,6b,7,8,8a,9,10,11,12,12a,14,14a,14b-octadecahydro-3-picenyl)benzoic acid] | > 7.00
5 | C=C(C)[C@@H]1CC[C@]2(C(=O)NCCCN3CCS(=O)(=O)CC3)CC[C@]3(C)[C@H](CC[C@@H]4[C@@]5(C)CC=C(c6ccc(C(=O)O)cc6)C(C)(C)[C@@H]5CC[C@]43C)[C@@H]12 [Example 85, 4-((1R,3aS,5aR,5bR,7aR,11aS,11bR,13aR,13bR)-3a-((3-(1,1-dioxido-4-thiomorpholinyl)propyl)carbamoyl)-1-isopropenyl-5a,5b,8,8,11a-pentamethyl-2,3,3a,4,5,5a,5b,6,7,7a,8,11,11a,11b,12,13,13a,13b-octadecahydro-1H-cyclopenta[a]chrysen-9-yl)benzoic acid] | > 7.00
6 | C=C(C)[C@@H]1CC[C@]2(C(=O)N[C@H](C(=O)O)c3ccccc3)CC[C@]3(C)[C@H](CC[C@@H]4[C@@]5(C)CC=C(c6ccc(C(=O)O)cc6)C(C)(C)[C@@H]5CC[C@]43C)[C@@H]12 [Example 56, 4-((1R,3aS,5aR,5bR,7aR,11aS,11bR,13aR,13bR)-3a-((S)-carboxy(phenyl)methylcarbamoyl)-5a,5b,8,8,11a-pentamethyl-1-(prop-1-en-2-yl)-2,3,3a,4,5,5a,5b,6,7,7a,8,11,11a,11b,12,13,13a,13b-octadecahydro-1H-cyclopenta[a]chrysen-9-yl)benzoic acid] | > 7.00
7 | C=C(C)[C@@H]1CC[C@]2(C(=O)NCC(O)CN)CC[C@]3(C)[C@H](CC[C@@H]4[C@@]5(C)CC=C(c6ccc(C(=O)O)cc6)C(C)(C)[C@@H]5CC[C@]43C)[C@@H]12 (stereo partly drawn) [Example 64, 4-((1R,3aS,5aR,5bR,7aR,11aS,11bR,13aR,13bR)-3a-(3-amino-2-hydroxypropylcarbamoyl)-5a,5b,8,8,11a-pentamethyl-1-(prop-1-en-2-yl)-2,3,3a,4,5,5a,5b,6,7,7a,8,11,11a,11b,12,13,13a,13b-octadecahydro-1H-cyclopenta[a]chrysen-9-yl)benzoic acid] | > 7.00
8 | CC1(C)CC[C@]2(C(=O)NCCCN3CCS(=O)(=O)CC3)CC[C@]3(C)C(=CC[C@@H]4[C@@]5(C)CC=C(c6ccc(C(=O)O)cc6)C(C)(C)[C@@H]5CC[C@]43C)[C@@H]2C1 [Example B2, 4-((4aR,6aR,6bS,8aS,12aS,14aR,14bS)-8a-((3-(1,1-dioxido-4-thiomorpholinyl)propyl)carbamoyl)-4,4,6a,6b,11,11,14b-heptamethyl-1,4,4a,5,6,6a,6b,7,8,8a,9,10,11,12,12a,14,14a,14b-octadecahydro-3-picenyl)benzoic acid] | > 7.00
9 | C=C(C)[C@@H]1CC[C@]2(C(=O)N[C@@H](CCSC)C(=O)O)CC[C@]3(C)[C@H](CC[C@@H]4[C@@]5(C)CC=C(c6ccc(C(=O)O)cc6)C(C)(C)[C@@H]5CC[C@]43C)[C@@H]12 [Example 63, 4-((1R,3aS,5aR,5bR,7aR,11aS,11bR,13aR,13bR)-3a-((S)-1-carboxy-3-(methylthio)propylcarbamoyl)-5a,5b,8,8,11a-pentamethyl-1-(prop-1-en-2-yl)-2,3,3a,4,5,5a,5b,6,7,7a,8,11,11a,11b,12,13,13a,13b-octadecahydro-1H-cyclopenta[a]chrysen-9-yl)benzoic acid] | < 7.00
10 | C=C(C)[C@@H]1CC[C@]2(C(=O)NCCN(CCC(=O)O)CCC(=O)O)CC[C@]3(C)[C@H](CC[C@@H]4[C@@]5(C)CC=C(c6ccc(C(=O)O)cc6)C(C)(C)[C@@H]5CC[C@]43C)[C@@H]12 [Example 90, 3,3′-(2-((1R,3aS,5aR,5bR,7aR,11aS,11bR,13aR,13bR)-9-(4-carboxyphenyl)-5a,5b,8,8,11a-pentamethyl-1-(prop-1-en-2-yl)-2,3,3a,4,5,5a,5b,6,7,7a,8,11,11a,11b,12,13,13a,13b-octadecahydro-1H-cyclopenta[a]chrysene-3a-carboxamido)ethylazanediyl)dipropanoic acid] | < 7.00
11 | C=C(C)[C@@H]1CC[C@]2(C(=O)N3CCC[C@@H]3CO)CC[C@]3(C)[C@H](CC[C@@H]4[C@@]5(C)CC=C(c6ccc(C(=O)O)cc6)C(C)(C)[C@@H]5CC[C@]43C)[C@@H]12 [Example 9, 4-((1R,3aS,5aR,5bR,7aR,11aS,11bR,13aR,13bR)-3a-((R)-2-(hydroxymethyl)pyrrolidine-1-carbonyl)-5a,5b,8,8,11a-pentamethyl-1-(prop-1-en-2-yl)-2,3,3a,4,5,5a,5b,6,7,7a,8,11,11a,11b,12,13,13a,13b-octadecahydro-1H-cyclopenta[a]chrysen-9-yl)benzoic acid] | > 7.00
12 | CC(C)[C@@H]1CC[C@]2(C(=O)NCCc3ccccn3)CC[C@]3(C)[C@H](CC[C@@H]4[C@@]5(C)CC[C@H](c6ccc(C(=O)O)cc6)C(C)(C)[C@@H]5CC[C@]43C)[C@@H]12 [Example 54, 4-((1S,3aS,5aR,5bR,7aS,9S,11aS,11bR,13aR,13bR)-1-isopropyl-5a,5b,8,8,11a-pentamethyl-3a-(2-(pyridin-2-yl)ethylcarbamoyl)icosahydro-1H-cyclopenta[a]chrysen-9-yl)benzoic acid] | > 7.00
13 | C=C(C)[C@@H]1CC[C@]2(C(=O)NCCc3ccccn3)CC[C@]3(C)[C@H](CC[C@@H]4[C@@]5(C)CC=C(c6ccc(C(=O)O)cc6)C(C)(C)[C@@H]5CC[C@]43C)[C@@H]12 [Example 1, 4-((1R,3aS,5aR,5bR,7aR,11aS,11bR,13aR,13bR)-5a,5b,8,8,11a-pentamethyl-1-(prop-1-en-2-yl)-3a-(2-(pyridin-2-yl)ethylcarbamoyl)-2,3,3a,4,5,5a,5b,6,7,7a,8,11,11a,11b,12,13,13a,13b-octadecahydro-1H-cyclopenta[a]chrysen-9-yl)benzoic acid] | > 7.00
14 | C=C(C)[C@@H]1CC[C@]2(C(=O)NCCCN(CC)CCC(=O)O)CC[C@]3(C)[C@H](CC[C@@H]4[C@@]5(C)CC=C(c6ccc(C(=O)O)cc6)C(C)(C)[C@@H]5CC[C@]43C)[C@@H]12 [Example 99, 4-((1R,3aS,5aR,5bR,7aR,11aS,11bR,13aR,13bR)-3a-(3-((2-carboxyethyl)(ethyl)amino)propylcarbamoyl)-5a,5b,8,8,11a-pentamethyl-1-(prop-1-en-2-yl)-2,3,3a,4,5,5a,5b,6,7,7a,8,11,11a,11b,12,13,13a,13b-octadecahydro-1H-cyclopenta[a]chrysen-9-yl)benzoic acid] | > 7.00
15 | C=C(C)[C@@H]1CC[C@]2(C(=O)Nc3nncs3)CC[C@]3(C)[C@H](CC[C@@H]4[C@@]5(C)CC=C(c6ccc(C(=O)O)cc6)C(C)(C)[C@@H]5CC[C@]43C)[C@@H]12 [Example 51, 4-((1R,3aS,5aR,5bR,7aR,11aS,11bR,13aR,13bR)-3a-(1,3,4-thiadiazol-2-ylcarbamoyl)-5a,5b,8,8,11a-pentamethyl-1-(prop-1-en-2-yl)-2,3,3a,4,5,5a,5b,6,7,7a,8,11,11a,11b,12,13,13a,13b-octadecahydro-1H-cyclopenta[a]chrysen-9-yl)benzoic acid] | > 7.00
16 | C=C(C)[C@@H]1CC[C@]2(C(=O)NCc3nccs3)CC[C@]3(C)[C@H](CC[C@@H]4[C@@]5(C)CC=C(c6ccc(C(=O)O)cc6)C(C)(C)[C@@H]5CC[C@]43C)[C@@H]12 [Example 41, 4-((1R,3aS,5aR,5bR,7aR,11aS,11bR,13aR,13bR)-5a,5b,8,8,11a-pentamethyl-1-(prop-1-en-2-yl)-3a-(thiazol-2-ylmethylcarbamoyl)-2,3,3a,4,5,5a,5b,6,7,7a,8,11,11a,11b,12,13,13a,13b-octadecahydro-1H-cyclopenta[a]chrysen-9-yl)benzoic acid] | > 7.00
